Experimental findings from patent US6497900B2, “Effervescent base” (priority 1997, dated 2002) are described below.

SMILES strings stand for the structures.

The nature of this data set: Breakdown of acid-sensitive active substances in the effervescent system. As to conditions: in the effervescent system according to the invention, also in a stress situation. It counts as physicochemical.

`NC(N)=Nc1nc(CSCCC(N)=NS(N)(=O)=O)cs1` [famotidine]: the “tendency of active substance to break down and form decomposition products” value is given as “substantially lower tendency”.
